Experimental data: US20070292967A1, “Assay for Ligands of the Ecdysone Receptor” (COMMONWEALTH SCIENTIFIC AND INDUSTRIAL RESEARCH OR, priority 2003, published 2007)
Where “and” joins values, the source holds several entries; their conditions need not be identical. Equal entries are not always repeated.

Key:
[1] = tested on: Lepidotera versus Diptera; conditions: selectivity between insect orders; cited from earlier work
[2] = target: LcLBD, recombinant LBD heterodimer of ecdysone receptor from Lucilia cuprina; assay: equilibrium binding of [3H]ponasterone A to LcLBD; conditions: Langmuir isotherm fit
Chain of LcLBD, recombinant LBD heterodimer of ecdysone receptor from Lucilia cuprina (O18531 442-677 limits assumed, one chain of several): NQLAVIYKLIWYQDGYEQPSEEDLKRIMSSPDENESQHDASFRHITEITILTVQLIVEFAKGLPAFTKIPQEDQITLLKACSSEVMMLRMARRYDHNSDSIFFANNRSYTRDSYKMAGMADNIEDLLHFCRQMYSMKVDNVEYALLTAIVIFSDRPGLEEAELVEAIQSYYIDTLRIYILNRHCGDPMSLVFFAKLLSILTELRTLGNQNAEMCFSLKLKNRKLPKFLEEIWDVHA
Chain of LcLBD (O18531 442-677 limits assumed): as the sequence (O18531 442-677 limits assumed, one chain of several) above
Description: (§1) Data fitting using a computer algorithm (KalcidaGraph v3.09, Synergy Software) allowed us to obtain Kd values for each receptor-radioligand complex and to ascertain [LBD]tot. Comparison of the [LBD]tot value with the protein concentration of each purified sample indicated the proportion of the recombinant receptor LBD heterodimer molecules that was functional. Testing Fluorescent and Reference Ecdysteroids As Ligands Using a Radioligand-based Assay

[3] = target: MpLBD, recombinant LBD heterodimer of ecdysone receptor from Myzus persicae; assay: equilibrium binding of [3H]ponasterone A to MpLBD; conditions: Langmuir isotherm fit
Description: as §1

[4] = target: BtLBD, recombinant LBD heterodimer of ecdysone receptor from Bemisia tabaci; assay: equilibrium binding of [3H]ponasterone A to BtLBD; conditions: Langmuir isotherm fit
Description: as §1

[5] = target: HaLBD, recombinant LBD heterodimer of ecdysone receptor from Helicoverpa armigera; assay: equilibrium binding of [3H]ponasterone A to HaLBD; conditions: Langmuir isotherm fit
Description: as §1

[6] = tested on: LcLBD; assay: removal of bound [3H]ponasterone A from LcLBD by dialysis; format: binding, Lucilia cuprina; conditions: dialysis at room temperature
Description: The same equilibrium binding experiments indicated the properties of functional receptor LBD heterodimer molecules in each preparation to be as follows: LcLBD, 21%; MpLBD, 16%; BtLBD, 8.4%. The value for HaLBD was not determined directly, but by indirect methods it was assigned a provisional value of 15%. The relatively low activity values agree with published observations for the full-length Drosophila melanogaster receptor, for which Sage et al. (1986) remark that ‘. . . the binding activity of unloaded receptor is inherently labile when subjected to standard protein purification techniques. Therefore, the ecdysteroid receptor needs to remain loaded with hormone during most manipulations’. While we agree that a much higher proportion of functional receptor protein can be obtained by conducting the purification in the presence of an ecdysteroid ligand (data not shown), the resulting receptor-ligand complex is not suitable for use in ligand-binding assays. Moreover, bound ecdysteroid ligands are slow to dissociate from the recombinant receptor LBDs. […] We therefore routinely purified the recombinant receptor LBD heterodimers in the absence of any ligands, and corrected the concentration values of the purified LBD heterodimer preparations to account for the proportion of non-functional heterodimer that was present. […]

Row | Molecule | effectiveness against Lepidotera relative to Diptera [1] | Kd [2] [nM] | Kd [3] | Kd [4] | Kd [5] [nM] | half-life of the radioligand-receptor complex [6]
1 | CCc1ccc(C(=O)NN(C(=O)c2cc(C)cc(C)c2)C(C)(C)C)cc1 [RH-5992] | two to three orders of magnitude more effective |  |  |  |  | 
2 | [24,25,26,27-^3H(N)]ponasterone A [[^3H]ponasterone A] |  | 1 ± 0.1 | 0.7 nM and 0.72 nM and ~0.7 nM | 1.21 nM and 1.2 nM | 2.53 ± 0.12 | about 10 h
